Experimental data: patent US20100119646A1, “Dihydroeugenol as Additive for feed” (DSM IP ASSETS B.V., priority 2007, published 2010)
Where two headings read alike, the source gives them in different places.

What was measured:
Escherichia coli = assay: Gut microflora modulation in vivo, ileo-rectal contents of anastomosed piglets: Escherichia coli counts; conditions: mean CFU per g ileal content dry matter, ten piglets, not significant
[1] = type: in vivo; conditions: for FCR (kg/kg) / Feed intake / DWG / DWG relative to basal diet A (100) / FCR relative to basal diet A (100) / Feed intake relative to basal diet A (100): 400 ppm in diet (mixture 1: 150 ppm); for FCR (kg/kg) / Feed intake: mean ± standard deviation of 3 determinations; for DWG: mean ± standard deviation of 19 determinations; for DWG relative to basal diet A (100) / FCR relative to basal diet A (100) / Feed intake relative to basal diet A (100): value in brackets, control A = (100); for improvement of feed conversion ratio versus controls: 400 ppm in diet
[2] = tested on: total lactic acid bacteria; assay: Gut microflora modulation in vivo, ileo-rectal contents of anastomosed piglets: lactic acid bacteria on MRS agar; conditions: ten piglets
Enterobacteriacae = assay: Gut microflora modulation in vivo, ileo-rectal contents of anastomosed piglets: Enterobacteriacae on V.R.B.D agar; conditions: mean CFU per g ileal content dry matter, ten piglets, not significant; for total Enterobacteriacae counts decreased relative to the control: 300 ppm in feed
Staphylococcus spp = assay: Gut microflora modulation in vivo, ileo-rectal contents of anastomosed piglets: Staphylococcus spp on Baird Parker agar; conditions: 300 ppm in feed; ten piglets
Enterococcus spp = assay: Gut microflora modulation in vivo, ileo-rectal contents of anastomosed piglets: Enterococcus spp on Enterococci agar; conditions: 300 ppm in feed; ten piglets
[3] = tested on: total facultative anaerobic bacteria; assay: Gut microflora modulation in vivo, ileo-rectal contents of anastomosed piglets: total facultative anaerobic counts on Brucella agar; conditions: 300 ppm in feed; mean CFU per g ileal content dry matter; ten piglets; not significant
[4] = 300 ppm in feed, mean CFU per g ileal content dry matter, not significant

| Compound | FCR (kg/kg) ([1]; day 0-14) | Feed intake ([1]; day 0-14) | DWG ([1]; day 0-14) | DWG relative to basal diet A (100) ([1]; day 0-14) | FCR relative to basal diet A (100) ([1]; day 0-14) | Feed intake relative to basal diet A (100) ([1]; day 0-14) | FCR (kg/kg) ([1]; day 0-29) | Feed intake ([1]; day 0-29) | DWG ([1]; day 0-29) | DWG relative to basal diet A (100) ([1]; day 0-29) | FCR relative to basal diet A (100) ([1]; day 0-29) | Feed intake relative to basal diet A (100) ([1]; day 0-29) | total Enterobacteriacae counts decreased relative to the control (Enterobacteriacae) | effect on the population of Enterococcus spp (in words) (Enterococcus spp) | total facultative anaerobic bacteria counts increased relative to the control [3] | other results |
| --- | --- | --- | --- | --- | --- | --- | --- | --- | --- | --- | --- | --- | --- | --- | --- | --- |
| Oc1ccc(CC=Cc2ccccc2)cc1 [4-cinnamylphenol] | 1.82 ± 0.058 kg/kg | 345 ± 42 g/day | 193 ± 41 g | (107) | (96) | (102) | 1.953 ± 0.048 kg/kg | 670 ± 72 g/day | 262 ± 53 g | (101) | (102) | (102) | 36% |  |  | Escherichia coli counts decreased relative to the control (Escherichia coli; 300 ppm in feed): 42%; total lactic acid bacteria counts decreased relative to the control [2, 4]: 22% |
| CCCc1ccc(O)c(OC)c1 [dihydroeugenol, 2-methoxy-4-propylphenol] | 1.776 ± 0.034 kg/kg | 364 ± 46 g/day | 208 ± 39 g | (115) | (93) | (107) | 1.88 ± 0.08 kg/kg | 708 ± 85 g/day | 285 ± 33 g | (110) | (98) | (108) | 67% | neutral effect | 12% | effect on the population of Staphylococcus spp (in words) (Staphylococcus spp): neutral effect; improvement of feed conversion ratio versus controls ([1]; first 14 days of the experiment): 7%; improvement of feed conversion ratio versus controls ([1]; whole observation period (29 days)): 2%; improvement of the daily weight gain comparatively to the non supplemented control ([1]; whole observation period (29 days), dihydroeugenol 400 ppm, mixture 1 150 ppm): 10%; total lactic acid bacteria counts increased relative to the control [2, 4]: 26% |
| Cc1cccc(C)c1O [2,6-dimethylphenol] | 1.886 ± 0.06 kg/kg | 350 ± 5 g/day | 186 ± 45 g | (103) | (99) | (103) | 1.914 ± 0.053 kg/kg | 694 ± 27 g/day | 272 ± 53 g | (105) | (100) | (106) | 68% | negative effect | 37% | effect on the total lactic acid bacteria (in words) ([2]; 300 ppm in feed): neutral effect |
| O=C1/C(=C/c2ccc(O)c(O)c2)Oc2cc(O)cc(O)c21 [aureusidin] | 1.965 ± 0.21 kg/kg | 332 ± 52 g/day | 189 ± 61 g | (104) | (103) | (98) | 1.968 ± 0.018 kg/kg | 686 ± 72 g/day | 275 ± 48 g | (106) | (103) | (104) |  |  |  | Escherichia coli counts decreased relative to the control (Escherichia coli; 150 ppm in feed): 66%; total lactic acid bacteria counts decreased relative to the control ([2]; 150 ppm in feed, mean CFU per g ileal content dry matter, not significant): 17%; Enterobacteriacae counts decreased relative to the control (Enterobacteriacae; 150 ppm in feed): 30% |
